Experimental data published in PMC11859184, “Synthesis and Evaluation of ^68Ga- and ^177Lu-Labeled [diF-Pro^14]Bombesin(6−14) Analogs for Detection and Radioligand Therapy of Gastrin-Releasing Peptide Receptor-Expressing Cancer” (Pharmaceuticals, 2025).
Where two headings read alike, the source gives them in different places.

Assay: Ex vivo biodistribution of 177Lu-labeled ligands in PC-3 tumor-bearing mice
Details: mouse, intravenous; for tissue uptake at 1 h: 1 h pi; for tissue uptake at 4 h: 4 h pi; for tissue uptake at 24 h: 24 h pi; for tissue uptake at 72 h: 72 h pi
Protocol: SPECT/CT imaging was conducted using an MI Labs (Houten, The Netherlands) U-SPECT-II/CT scanner with a custom-made ultra-high sensitivity big mouse collimator (2 mm pinhole size) following published procedure. The experiments were obtained in accordance with the same protocol established in the PET/CT imaging and ex vivo biodistributions section. The mice were used for SPECT/CT imaging and ex vivo biodistributions studies once the tumors reached a diameter of 5–8 mm. PC-3 tumor-bearing mice were sedated (2.5% isoflurane in O2) and injected with 31.4–36.9 MBq of the ^177Lu-labeled ligand through a lateral caudal tail vein. The mouse was imaged at 1, 4, 24, 72, and 120 h pi. At each time point, a 5 min CT scan was performed with 615 μA and 60 kV parameters for localization and attenuation, followed by two 30 min static SPECT scans in list mode with an energy window centered around 208 keV. The U-SPECT II software was used to reconstruct data, and the images were decay corrected to the time of injection with PMOD v 3.402 (PMOD Technologies GmbH, Fallanden, Switzerland).
For ex vivo biodistribution studies, the mice were injected with ~3–5 MBq of the ^177Lu-labeled ligand (n = 5). At 1, 4, 24, 72, and 120 h post-injection, the mice were anesthetized with 2% isoflurane, euthanized by CO2 inhalation, and the tissues/organs of interest were […] for radioactivity counting. The blocking study was performed at 1 h pi via co-injection of the ^177Lu-labeled ligand with 100 μg of [D-Phe^6,Leu-NHEt^13,des-Met^14]Bombesin(6–14).

[1] = kidneys, n = 5, read-out: Kidneys uptake
[2] = large intestine, n = 5, read-out: Large intestine uptake
[3] = liver, n = 5, read-out: Liver uptake
[4] = lungs, n = 5, read-out: Lungs uptake
[5] = muscle, n = 5, read-out: Muscle uptake
[6] = pancreas, n = 5, read-out: Pancreas uptake
[7] = small intestine, n = 5, read-out: Small intestine uptake
[8] = spleen, n = 5, read-out: Spleen uptake
[9] = stomach, n = 5, read-out: Stomach uptake
[10] = testes, n = 5, read-out: Testes uptake

## CC(C)C[C@@H](CN1CC(F)(F)C[C@H]1C(N)=O)NC(=O)[C@H](Cc1c[nH]cn1)NC(=O)CN(C)C(=O)[C@@H](NC(=O)[C@H](C)NC(=O)[C@H](Cc1c[nH]c2ccccc12)NC(=O)[C@H](CCC(N)=O)NC(=O)[C@@H](Cc1ccccc1)NC(=O)CN1CCC(NC(=O)CN2CCN(CC(=O)O)CCN(CC(=O)O)CCN(CC(=O)O)CC2)CC1)C(C)C [[^177Lu]Lu-LW02080, metal not drawn]
heart, 120 h pi, n = 5, read-out: Heart uptake
  tissue uptake at 120 h: 0.01 ± 0.01 %ID/g
kidneys, 100 ug, blocked (100 µg GRPR antagonist co-injected), read-out: Kidneys uptake
  tissue uptake at 1 h: 4.17 ± 0.95 %ID/g
[1]
  tissue uptake at 1 h: 2.65 ± 0.48 %ID/g
  tissue uptake at 4 h: 1.88 ± 0.35 %ID/g
  tissue uptake at 24 h: 0.89 ± 0.28 %ID/g
  tissue uptake at 72 h: 0.26 ± 0.08 %ID/g
kidneys, 120 h pi, n = 5, read-out: Kidneys uptake
  tissue uptake at 120 h: 0.12 ± 0.03 %ID/g
Large intestine, 100 ug, blocked (100 µg GRPR antagonist co-injected), read-out: Large intestine uptake
  tissue uptake at 1 h: 0.21 ± 0.09 %ID/g
[2]
  tissue uptake at 1 h: 0.17 ± 0.09 %ID/g
  tissue uptake at 4 h: 0.34 ± 0.04 %ID/g
  tissue uptake at 24 h: 0.15 ± 0.06 %ID/g
  tissue uptake at 72 h: 0.06 ± 0.02 %ID/g
Large intestine, 120 h pi, n = 5, read-out: Large intestine uptake
  tissue uptake at 120 h: 0.02 ± 0.01 %ID/g
liver, 100 ug, blocked (100 µg GRPR antagonist co-injected), read-out: Liver uptake
  tissue uptake at 1 h: 0.33 ± 0.08 %ID/g
[3]
  tissue uptake at 1 h: 0.27 ± 0.1 %ID/g
  tissue uptake at 4 h: 0.2 ± 0.08 %ID/g
  tissue uptake at 24 h: 0.09 ± 0.01 %ID/g
  tissue uptake at 72 h: 0.04 ± 0.01 %ID/g
liver, 120 h pi, n = 5, read-out: Liver uptake
  tissue uptake at 120 h: 0.03 ± 0.01 %ID/g
lungs, 100 ug, blocked (100 µg GRPR antagonist co-injected), read-out: Lungs uptake
  tissue uptake at 1 h: 0.45 ± 0.22 %ID/g
[4]
  tissue uptake at 1 h: 0.43 ± 0.04 %ID/g
  tissue uptake at 4 h: 0.13 ± 0.08 %ID/g
  tissue uptake at 24 h: 0.05 ± 0.03 %ID/g
  tissue uptake at 72 h: 0.02 %ID/g
lungs, 120 h pi, n = 5, read-out: Lungs uptake
  tissue uptake at 120 h: 0.05 ± 0.03 %ID/g
muscle, 100 ug, blocked (100 µg GRPR antagonist co-injected), read-out: Muscle uptake
  tissue uptake at 1 h: 0.15 ± 0.04 %ID/g
[5]
  tissue uptake at 1 h: 0.06 ± 0.01 %ID/g
  tissue uptake at 4 h: 0.01 %ID/g
  tissue uptake at 24 h: 0.01 %ID/g
pancreas, 100 ug, blocked (100 µg GRPR antagonist co-injected), read-out: Pancreas uptake
  tissue uptake at 1 h: 0.34 ± 0.09 %ID/g
[6]
  tissue uptake at 1 h: 0.39 ± 0.08 %ID/g
  tissue uptake at 4 h: 0.06 ± 0.02 %ID/g
  tissue uptake at 24 h: 0.04 ± 0.01 %ID/g
  tissue uptake at 72 h: 0.01 %ID/g
pancreas, 120 h pi, n = 5, read-out: Pancreas uptake
  tissue uptake at 120 h: 0.01 %ID/g
pancreas, all time points (1, 4, 24, 72, 120 h pi), read-out: pancreas uptake
  tissue uptake at 120 h: < 0.5 %ID/g
Small intestine, 100 ug, blocked (100 µg GRPR antagonist co-injected), read-out: Small intestine uptake
  tissue uptake at 1 h: 0.48 ± 0.18 %ID/g
[7]
  tissue uptake at 1 h: 0.28 ± 0.03 %ID/g
  tissue uptake at 4 h: 0.07 ± 0.03 %ID/g
  tissue uptake at 24 h: 0.03 ± 0.01 %ID/g
  tissue uptake at 72 h: 0.01 %ID/g
Small intestine, 120 h pi, n = 5, read-out: Small intestine uptake
  tissue uptake at 120 h: 0.01 %ID/g
spleen, 100 ug, blocked (100 µg GRPR antagonist co-injected), read-out: Spleen uptake
  tissue uptake at 1 h: 0.16 ± 0.05 %ID/g
[8]
  tissue uptake at 1 h: 0.14 ± 0.04 %ID/g
  tissue uptake at 4 h: 0.07 ± 0.01 %ID/g
  tissue uptake at 24 h: 0.07 ± 0.02 %ID/g
  tissue uptake at 72 h: 0.04 ± 0.01 %ID/g
spleen, 120 h pi, n = 5, read-out: Spleen uptake
  tissue uptake at 120 h: 0.03 %ID/g
stomach, 100 ug, blocked (100 µg GRPR antagonist co-injected), read-out: Stomach uptake
  tissue uptake at 1 h: 0.26 ± 0.14 %ID/g
[9]
  tissue uptake at 1 h: 0.08 ± 0.04 %ID/g
  tissue uptake at 4 h: 0.02 %ID/g
  tissue uptake at 24 h: 0.07 ± 0.04 %ID/g
  tissue uptake at 72 h: 0.02 ± 0.01 %ID/g
stomach, 120 h pi, n = 5, read-out: Stomach uptake
  tissue uptake at 120 h: 0.01 ± 0.01 %ID/g
testes, 100 ug, blocked (100 µg GRPR antagonist co-injected), read-out: Testes uptake
  tissue uptake at 1 h: 0.22 ± 0.09 %ID/g
[10]
  tissue uptake at 1 h: 0.2 ± 0.04 %ID/g
  tissue uptake at 4 h: 0.03 ± 0.01 %ID/g
  tissue uptake at 24 h: 0.03 ± 0.01 %ID/g
  tissue uptake at 72 h: 0.01 %ID/g
testes, 120 h pi, n = 5, read-out: Testes uptake
  tissue uptake at 120 h: 0.01 %ID/g
